Source: PubChem BioAssay (NCI)
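Results reflect a 48-hour exposure of cells in 96-well plates to compound at five concentrations. TGI denotes the concentration required for complete inhibition of growth.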

Experiments:
Experiment in all cases: NCI tumour cell line growth inhibition, 48 h
HS 578T breast = system: HS 578T breast
HCC-2998 colon = system: HCC-2998 colon
COLO 205 colon = system: COLO 205 colon
MCF7 breast = system: MCF7 breast
OVCAR-5 ovarian = system: OVCAR-5 ovarian
KM12 colon = system: KM12 colon
SN12C renal = system: SN12C renal
MALME-3M melanoma = system: MALME-3M melanoma
SF-295 CNS = system: SF-295 CNS
M14 melanoma = system: M14 melanoma
SF-539 CNS = system: SF-539 CNS
CAKI-1 renal = system: CAKI-1 renal

Row | Structure (SMILES) | TGI (HS 578T breast) | TGI (HCC-2998 colon) | TGI (COLO 205 colon) | TGI (MCF7 breast) | TGI (OVCAR-5 ovarian) | TGI (KM12 colon) | TGI (SN12C renal) | TGI (MALME-3M melanoma) | TGI (SF-295 CNS) | TGI (M14 melanoma) | TGI (SF-539 CNS) | TGI (CAKI-1 renal)
1 | O=C1C(Cl)C(c2cccc(Br)c2)N1c1c(O)c(Cl)cc(Br)c1Cl (centres undefined) | 24 µM | 23.2 µM | 20.8 µM | 25.8 µM | 56.5 µM | 39.4 µM | 28.3 µM | 55.3 µM | 31.1 µM | 27.1 µM | 32.6 µM | 81.1 µM
2 | O=C1c2ccccc2-n2c1nc1cc(Cl)ccc1c2=O | > 100 µM | > 100 µM | > 100 µM | > 100 µM | > 100 µM | > 100 µM | > 100 µM | 21.9 µM | > 100 µM | > 100 µM | > 100 µM | > 100 µM
3 | O=C1C=C(NCCc2cc(Cl)c(O)c(Cl)c2)C(=O)c2[nH]cnc21 | > 100 µM | > 100 µM | 52.7 µM | 64.8 µM | > 100 µM | > 100 µM | > 100 µM | 15.9 µM | 45.6 µM | 26.7 µM | > 100 µM | 
4 | Cc1cc(S(=O)(=O)Nc2nc(N)nc(N(C)C)n2)c(SC(C(=O)O)c2ccccc2)cc1Cl (centres undefined) | > 10 µM | > 10 µM | > 10 µM | > 10 µM | > 10 µM | > 10 µM | > 10 µM | > 10 µM | > 10 µM | > 10 µM | > 10 µM | > 10 µM
5 | COC(=O)c1cn(CCCCO)nn1 | > 100 µM | > 100 µM | > 100 µM | > 100 µM |  | > 100 µM | > 100 µM | > 100 µM | > 100 µM |  | > 100 µM | > 100 µM
6 | O=C(Oc1ccc(OC(Oc2ccccc2)c2ccccc2)cc1)c1ccccc1 (centres undefined) | > 31.6 µM | 22 µM | > 31.6 µM | > 31.6 µM | > 100 µM | > 31.6 µM | > 31.6 µM | 18.8 µM | 25.8 µM | > 31.6 µM | > 31.6 µM | 
7 | COc1cc2c(cc1OC)CN1CCc3ccccc3CC1C2 (centres undefined) | > 100 µM | > 100 µM | > 100 µM | > 100 µM | > 100 µM | > 100 µM | > 100 µM | > 100 µM | > 100 µM | > 100 µM | > 100 µM | > 100 µM
8 | CCOC(=O)c1nc2cc(C(F)(F)F)ccc2nc1Oc1ccc(C(=O)OC)cc1 | > 100 µM | > 100 µM | > 100 µM | > 100 µM | > 100 µM | > 100 µM | > 100 µM | > 100 µM | > 100 µM | > 100 µM | > 100 µM | > 100 µM
9 | O=C1CCCCCCCCCCC1CN(Cc1ccccc1)Cc1ccccc1 (centres undefined) | > 100 µM | 85.8 µM | > 100 µM | 68.1 µM | > 100 µM | > 100 µM | > 100 µM | 75.2 µM | > 100 µM | > 100 µM | > 100 µM | 
10 | Cc1ccc(N=Nc2c(C)nn(C(=O)CC(=O)Nc3ccc(Cl)cc3)c2C)cc1C | 30.7 µM | > 100 µM | > 100 µM | > 100 µM | > 100 µM | > 100 µM | > 100 µM | > 100 µM | > 100 µM | > 100 µM | > 100 µM | > 100 µM
11 | Nc1nc(Sc2ccc([N+](=O)[O-])cn2)c2[nH]cnc2n1 | 77.8 µM | 96.8 µM | 39 µM | > 100 µM | > 100 µM | > 38.1 µM | 29.4 µM | 36.1 µM | > 94.2 µM | 24.1 µM | > 100 µM | 71.7 µM
12 | Cc1ccc(Nc2cc(=O)[nH]c(=O)[nH]2)cc1CS | > 100 µM | > 100 µM | > 100 µM |  | > 100 µM | > 100 µM | > 100 µM | > 100 µM | > 100 µM | > 100 µM | > 100 µM | > 100 µM
13 | Nc1ccc(-c2nc3ccccc3s2)cc1F | > 100 µM |  | 48.3 µM | > 100 µM |  | > 100 µM | > 100 µM | > 100 µM | 94 µM | > 100 µM |  | 54.4 µM
14 | CC1=C2c3ccccc3N(S(=O)(=O)c3ccccc3)[C@H]2[C@H](C(=O)N2C3CC4CC[C@@]3(CS2(=O)=O)C4(C)C)CC1 (some centres undefined) | > 100 µM |  | > 100 µM | 75.4 µM | > 100 µM | > 100 µM | > 100 µM | > 100 µM | > 100 µM | > 100 µM | > 100 µM | > 100 µM
15 | O=C(Nn1c(-c2ccccc2)nc2ccccc2c1=O)c1ccc(O)cc1 | > 100 µM | > 100 µM | > 100 µM | > 100 µM | > 100 µM | > 100 µM | > 100 µM | > 100 µM | > 100 µM | > 100 µM | > 100 µM | 
16 | Nc1nc(NCC2(CO)CC(CCc3ccccc3)C2)cc(=O)[nH]1 (centres undefined) | > 100 µM | > 100 µM | > 100 µM | > 100 µM | > 100 µM | > 100 µM | > 100 µM | > 100 µM | > 100 µM | > 100 µM |  | > 100 µM
17 | Cc1cn(CCCCOC(=O)NC(CCCNC(N)=O)C(=O)O)c(=O)[nH]c1=O (centres undefined) | > 100 µM | > 100 µM | > 100 µM | > 100 µM | > 100 µM | > 100 µM | > 100 µM |  | > 100 µM | > 100 µM | > 100 µM | > 100 µM
18 | CC(C)N(C(=O)c1ccc(NCc2cc(O)ccc2O)cc1)C(C)C | 78.7 µM |  | > 100 µM | 87.8 µM | 43.8 µM |  | 49 µM | 28.9 µM | 46 µM | 35.7 µM | 34 µM | 27.2 µM
19 | Cc1cccc(Nc2nc(NNC(=O)Cc3ccccc3)nc(NNC(=O)c3ccncc3)n2)c1 | > 10 µM | > 10 µM | > 10 µM | > 10 µM |  | > 10 µM | > 10 µM | > 10 µM | > 10 µM | > 10 µM | > 10 µM | > 10 µM
20 | N#Cc1nc(C2SCCCS2)oc1N | > 100 µM |  |  | > 100 µM | > 100 µM | > 100 µM | > 100 µM |  |  | > 100 µM |  | > 100 µM
